# Source: patent US20110144014A1, “CYTOKINE RECEPTOR MODULATORS AND USES THEREOF” (CENTRE HOSPITALIER UNIVERSITAIRE SAINTE-JUSTINE, priority 2005, published 2011)
# Marks after values point to notes of the source that are not given here. Where a SMILES comes first, the peptide text is derived from it. [ ]: non-standard residue; d: D form.
# Tested on: TNBS-induced colon inflammation
# Test: TNBS rat model of inflammatory bowel disease
# Format: in vivo
# Procedure: Colon inflammation was induced by intra-rectal/colon administration of the hapten trinitrobenzene sulphonic acid (TNBS) on male Sprague-Dawley rats (175-200 g) (Bouma, Nature Rev, 2003; Morris, Gastroenterology, 1989). Animals were anesthetized with isoflurane and TNBS dissolved in 50% ethanol (vol/vol). 120 mg/ml (TNBS) was administered into the colon (total volume of 0.25 ml per rat) using a polyethylene tube (PE50). The cannula was inserted at 8 cm from the anus and kept in place for at least 15 minutes after TNBS administration in order to prevent expulsion of the solution. Two hours prior to TNBS administration, the API-101 derivative API-101.10 (1.1 mg/kg) or 0.9% saline was administered intravenously via the caudal vein (total volume of 0.3 ml). […] A third group (control) was not injected with TNBS. Six days after administration of TNBS, rats were killed by CO2 inhalation. Day 6 was chosen as an endpoint because by day 7 spontaneous tissue regeneration begins and this can mask the therapeutic effect of the tested peptide or peptide derivative. Colon was removed and examined macroscopically (adhesions, ulcerations, discoloration and bleeding) and histologically (neutrophil infiltration, epithelial injury, crypt distortion and ulcerations) (Anthony et al., Int. J. Exp. Path. 76:215-224, 1995; Padol et al., Eur. J. of Gastroenterol. Hepatol. 12:257-265, 2000; Dieleman et al., […], 1997; Torres et al., Digestive Diseases and Sciences 44:2523-2529, 1999). Two animals per group were studied.
# Histological transversal sections were cut at 4-6 cm from the proximal anal region and colored with the hematoxylin/eosin method. The TNBS model of inflammatory bowel disease reproduces the inflammatory characteristics and tissue injuries of Crohn's disease (e.g., in humans). Morphologically, the colon of the animals injected with TNBS presented thickening, edema, and discoloration of the intestinal wall indicating a significant inflammation. […] Histological features consisted of neutrophil infiltration into the epithelial layer and crypts, epithelial lining injury as well as the loss of crypts. […] The organization and integrity of the crypts in the API-101.10-treated colon is conserved even if there is still some inflammation (half the dose of API-101.10 was used as compared to the macroscopic analysis experiment).
# Colon inflammation was induced by intra-rectal/colon administration of the hapten trinitrobenzene sulphonic acid (TNBS) as described above. Two hours prior to TNBS administration, peptides, peptidomimetics or 0.9% saline were administered intravenously (iv) via the caudal vein (various concentrations of mg/kg/d) (total volume of 0.3 ml). […] A third group (control) was not injected with TNBS. For intermittent administration, fifteen minutes after TNBS administration, 101.10 (0.25-1 mg/kg), 101.107 (0.2 mg/kg), 101.113 (0.05-1 mg/kg) were administered by intermittent intraperitoneal injection (ip). Also, these IL-1R antagonists were given twice a day (BID); Remicade® (anti-TNFα) (10 mg/kg) and dexamethasone (0.75 mg/kg) were administered intraperitoneally but only once a day (qd). The intrarectal administration (ir) of 101.10, 101.113 (1 and 2.5 mg/kg), and 5-ASA (50 mg/kg) was done one hour after TNBS administration, and twice a day, except for 5-ASA which is once a day. Finally, 101.10 (1-5 mg/kg) was also administered orally by gavage (po), twice a day. Forty-eight hours after administration of TNBS, rats were killed by CO2 inhalation. The colon was removed and assessed macroscopically (adhesions, ulcerations, discoloration and bleeding) and histologically (neutrophil infiltration, epithelial injury, crypt distortion and ulcerations). One to seven animals per group were studied, according to treatments. Myeloperoxidase (MPO) activity was measured on tissue lysates.
# [1] = continuous infusion (ip), 0.25 mg/kg/d
# [2] = continuous infusion (ip), 0.75 mg/kg/d
# [3] = continuous infusion (ip), 2.2 mg/kg/d
# [4] = continuous infusion (ip), 4.0 mg/kg/d
# [5] = intermittent injection (ip), 0.25-BID mg/kg/d
# [6] = intermittent injection (ip), 0.50-BID mg/kg/d
# [7] = intermittent injection (ip), 1.0-BID mg/kg/d
# [8] = intermittent injection (ip), 1.0-BID mg/kg/d, 12 h after TNBS
# [9] = intermittent injection (ip), 1.0-qd mg/kg/d
# [10] = intrarectal administration, 2.5-BID mg/kg/d
# [11] = intrarectal administration, + PEG-400, 1.0-BID mg/kg/d
# [12] = intrarectal administration, + PEG-400, 2.5-BID mg/kg/d
# [13] = oral administration, 5.0-BID mg/kg/d
# [14] = oral administration, + PEG-400, 1.0-BID mg/kg/d
# [15] = oral administration, + PEG-400, 2.5-BID mg/kg/d
# [16] = oral administration, + PEG-400, 5.0-BID mg/kg/d
compound,measurement,setting,value
"CC(C)C[C@@H](NC(=O)[C@@H](CCC(=O)O)NC(=O)[C@H](NC(=O)[C@H](NC(=O)[C@@H](Cc1ccc(O)cc1)NC(=O)[C@H](N)CCCNC(=N)N)[C@H](C)O)C(C)C)C(=O)N[C@H](C)C(N)=O [API-101.10, RYTVELA] (H-[dR][dY][dT][dV][dE][dL][dA]-NH2; N-terminus and C-terminus assumed)",TNBS-induced colon damage,"1.1 mg/kg iv 2 h before TNBS, then 2.2 mg/kg continuous ip infusion, day 6",prevented TNBS-induced colon damage
same,Histologic evaluation (median score),[1],2 (Small ulcer (<5 crypts))
same,MPO (% of TNBS + Saline),[1],34 % of TNBS + Saline
same,Histologic evaluation (median score),[2],4.4 median score
same,MPO (% of TNBS + Saline),[2],54 % of TNBS + Saline
same,Histologic evaluation (median score),[3],2 (Small ulcer (<5 crypts))
same,MPO (% of TNBS + Saline),[3],46 ± 22 % of TNBS + Saline
same,Histologic evaluation (median score),[4],2 (Small ulcer (<5 crypts))
same,MPO (% of TNBS + Saline),[4],82 % of TNBS + Saline
same,inflammatory features and MPO activity,"gavage twice a day, 5.0 mg/kg/d",substantially reduces
same,Histologic evaluation (median score),[5],2.25 median score
same,MPO (% of TNBS + Saline),[5],85 % of TNBS + Saline
same,Macroscopic evaluation (median score),[5],0.87 median score
same,Histologic evaluation (median score),[6],3 (Medium ulcer (5-10 crypts))
same,MPO (% of TNBS + Saline),[6],126 % of TNBS + Saline
same,Macroscopic evaluation (median score),[6],0.87 median score
same,Histologic evaluation (median score),[7],1.25 median score
same,MPO (% of TNBS + Saline),[7],47 ± 9 % of TNBS + Saline
same,Macroscopic evaluation (median score),[7],0.8 ± 0.1 median score
same,Histologic evaluation (median score),[8],2.6 median score
same,Macroscopic evaluation (median score),[8],1.1 ± 0.1 median score
same,MPO (% of TNBS + Saline),"intermittent injection (ip), 1.0-BID mg/kg/d, 12 h after TNBS, leucocyte infiltration has already occurred",123 ± 18 % of TNBS + Saline
same,Histologic evaluation (median score),[9],5 (Marked denudation (>20 crypts))
same,MPO (% of TNBS + Saline),[9],67 % of TNBS + Saline
same,Macroscopic evaluation (median score),[9],1.63 median score
same,"MPO activity, macroscopic and histologic score","intraperitoneal osmotic pumps (continuous infusion), superior or equivalent to Kineret",marked reductions
same,MPO (% of TNBS + Saline),[10],111 ± 25 % of TNBS + Saline
same,Macroscopic evaluation (median score),[10],1.4 ± 0.1 median score
same,Histologic evaluation (median score),[11],3.2 median score
same,MPO (% of TNBS + Saline),[11],110 % of TNBS + Saline
same,Macroscopic evaluation (median score),[11],1.25t median score
same,Histologic evaluation (median score),[12],3.9 median score
same,MPO (% of TNBS + Saline),[12],59 % of TNBS + Saline
same,Macroscopic evaluation (median score),[12],1.17^† median score
same,reduction of MPO activity,"intrarectally, 2.5 mg/kg/d",50%
same,Histologic evaluation (median score),[13],2.25 median score
same,MPO (% of TNBS + Saline),[13],65 % of TNBS + Saline
same,Macroscopic evaluation (median score),[13],0.75 median score
same,Histologic evaluation (median score),[14],3.5 median score
same,MPO (% of TNBS + Saline),[14],167 % of TNBS + Saline
same,Macroscopic evaluation (median score),[14],1.0 median score
same,Histologic evaluation (median score),[15],3.5 median score
same,MPO (% of TNBS + Saline),[15],176 % of TNBS + Saline
same,Macroscopic evaluation (median score),[15],1.25 median score
same,Histologic evaluation (median score),[16],3.6 median score
same,MPO (% of TNBS + Saline),[16],57 % of TNBS + Saline
same,Macroscopic evaluation (median score),[16],1.5 median score
same,efficacy of intermittent administration,"twice a day, surpasses dexamethasone, Remicade and 5-ASA",dose-dependent efficacy
